This is an account of results in patent US20250136578A1 (Kolm Therapeutics Inc., priority 2023, published 2025).

Like-named read-outs stand apart in the source and are kept apart here.

One experiment has as its target AR / CBP ternary complex (Homo sapiens, UniProt P10275+Q92793). Description: Ternary complex formation assay (sandwich ELISA, AR capture, CBP antibody detection) in VCaP cell lysates. It counts as cell-based. Put shortly: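 VCaP cells in 5% charcoal-stripped FBS were cultured ≥3 days and then given bifunctional compound for 1.5 h. Lysates went onto AR-antibody-coated plates. Bound CBP (or p300) was detected with a rabbit antibody plus HRP anti-rabbit, using QuantaRed chemifluorescence (ex 570/em 585) read immediately, at 5 min and at 15 min.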
Background: In an ELISA, binding on a coated surface is turned into a signal by an enzyme label.

In the next experiment the test system is VCaP cells. Description: VCaP growth inhibition assay (CTG). It counts as cell-based. The conditions noted are these: Homo sapiens, 216 h, 30 pM R1881, 9 days. As for the experimental part: VCaP cells (ATCC Cat #CRL-2876) are plated at 1×10^4 cells per well of a white plastic 96-well cluster plate (Thermo Scientific Nunc Cat #165306) in 100 uL phenol red-free DMEM (Gibco Cat #21063-029) media with 5% CSS (Omega Scientific Cat #FB-04). Cluster plates are returned to the incubator (37*C/5% CO2) for 72 hours prior to treatment. Just prior to treatment, 100 uL of phenol red-free DMEM/5% CSS and 60 pM R1881 (Sigma Cat #R0908-10 mg) was added to each well of the cluster plates (Final R1881 concentration=30 pM). Compounds (200X) were added to each well in a volume of 1 uL, with serial dilutions (1:5) from 20 uM to 2 pM (final concentrations in well are 100 nM to 10 fM). Cluster plates are returned to the incubator for 9 days.
After the 9-day treatment period, media was removed from the cluster plates by inversion and 100 uL room temperature CTG reagent (Promega Cat #G7573) is added to each well. The cluster plates are placed on a shaker and incubated at room temperature for 20 minutes. Following this shaking/incubation, cluster plates are read on a luminometer (BMG ClarioStar). IC50 values are obtained by graphing the RLU data vs. compound concentration with nonlinear regression 4-parameter logistic curves (GraphPad Prism).

Where [1] appears, read: treated 1.5 hours, rabbit CBP or p300 antibody detection, average, read-out: Average Ternary Complex.
The mark [2] stands for this setting: read-out: Average Ternary Complex, treated 1.5 hours, rabbit CBP or p300 antibody detection.

As a reminder, the IC50 is the concentration needed to halve the response being measured.

Chain of AR / CBP ternary complex (P10275 whole entry): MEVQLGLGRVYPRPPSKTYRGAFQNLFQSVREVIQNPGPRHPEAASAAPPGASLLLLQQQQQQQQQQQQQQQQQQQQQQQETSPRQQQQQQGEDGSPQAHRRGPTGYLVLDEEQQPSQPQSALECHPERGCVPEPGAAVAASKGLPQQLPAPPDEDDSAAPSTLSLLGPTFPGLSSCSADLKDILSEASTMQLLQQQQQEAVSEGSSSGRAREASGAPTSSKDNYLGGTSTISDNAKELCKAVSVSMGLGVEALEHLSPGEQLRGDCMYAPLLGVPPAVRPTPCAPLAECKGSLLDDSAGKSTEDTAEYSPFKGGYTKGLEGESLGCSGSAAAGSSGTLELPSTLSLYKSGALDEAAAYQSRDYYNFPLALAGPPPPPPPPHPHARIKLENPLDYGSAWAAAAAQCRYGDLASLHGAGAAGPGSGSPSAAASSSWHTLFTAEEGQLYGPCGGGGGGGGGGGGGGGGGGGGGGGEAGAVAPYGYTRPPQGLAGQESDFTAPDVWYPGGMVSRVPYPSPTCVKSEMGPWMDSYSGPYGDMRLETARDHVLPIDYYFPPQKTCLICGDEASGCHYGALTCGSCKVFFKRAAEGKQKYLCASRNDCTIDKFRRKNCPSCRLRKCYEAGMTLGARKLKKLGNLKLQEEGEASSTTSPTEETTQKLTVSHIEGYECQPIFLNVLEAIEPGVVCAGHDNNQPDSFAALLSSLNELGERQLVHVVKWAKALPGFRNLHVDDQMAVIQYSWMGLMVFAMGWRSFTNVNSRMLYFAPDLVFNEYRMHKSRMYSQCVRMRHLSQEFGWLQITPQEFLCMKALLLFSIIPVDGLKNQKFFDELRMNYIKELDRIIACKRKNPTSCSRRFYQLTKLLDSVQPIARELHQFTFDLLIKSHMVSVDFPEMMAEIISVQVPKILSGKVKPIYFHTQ
Chain of AR / CBP ternary complex (Q92793 2-2442): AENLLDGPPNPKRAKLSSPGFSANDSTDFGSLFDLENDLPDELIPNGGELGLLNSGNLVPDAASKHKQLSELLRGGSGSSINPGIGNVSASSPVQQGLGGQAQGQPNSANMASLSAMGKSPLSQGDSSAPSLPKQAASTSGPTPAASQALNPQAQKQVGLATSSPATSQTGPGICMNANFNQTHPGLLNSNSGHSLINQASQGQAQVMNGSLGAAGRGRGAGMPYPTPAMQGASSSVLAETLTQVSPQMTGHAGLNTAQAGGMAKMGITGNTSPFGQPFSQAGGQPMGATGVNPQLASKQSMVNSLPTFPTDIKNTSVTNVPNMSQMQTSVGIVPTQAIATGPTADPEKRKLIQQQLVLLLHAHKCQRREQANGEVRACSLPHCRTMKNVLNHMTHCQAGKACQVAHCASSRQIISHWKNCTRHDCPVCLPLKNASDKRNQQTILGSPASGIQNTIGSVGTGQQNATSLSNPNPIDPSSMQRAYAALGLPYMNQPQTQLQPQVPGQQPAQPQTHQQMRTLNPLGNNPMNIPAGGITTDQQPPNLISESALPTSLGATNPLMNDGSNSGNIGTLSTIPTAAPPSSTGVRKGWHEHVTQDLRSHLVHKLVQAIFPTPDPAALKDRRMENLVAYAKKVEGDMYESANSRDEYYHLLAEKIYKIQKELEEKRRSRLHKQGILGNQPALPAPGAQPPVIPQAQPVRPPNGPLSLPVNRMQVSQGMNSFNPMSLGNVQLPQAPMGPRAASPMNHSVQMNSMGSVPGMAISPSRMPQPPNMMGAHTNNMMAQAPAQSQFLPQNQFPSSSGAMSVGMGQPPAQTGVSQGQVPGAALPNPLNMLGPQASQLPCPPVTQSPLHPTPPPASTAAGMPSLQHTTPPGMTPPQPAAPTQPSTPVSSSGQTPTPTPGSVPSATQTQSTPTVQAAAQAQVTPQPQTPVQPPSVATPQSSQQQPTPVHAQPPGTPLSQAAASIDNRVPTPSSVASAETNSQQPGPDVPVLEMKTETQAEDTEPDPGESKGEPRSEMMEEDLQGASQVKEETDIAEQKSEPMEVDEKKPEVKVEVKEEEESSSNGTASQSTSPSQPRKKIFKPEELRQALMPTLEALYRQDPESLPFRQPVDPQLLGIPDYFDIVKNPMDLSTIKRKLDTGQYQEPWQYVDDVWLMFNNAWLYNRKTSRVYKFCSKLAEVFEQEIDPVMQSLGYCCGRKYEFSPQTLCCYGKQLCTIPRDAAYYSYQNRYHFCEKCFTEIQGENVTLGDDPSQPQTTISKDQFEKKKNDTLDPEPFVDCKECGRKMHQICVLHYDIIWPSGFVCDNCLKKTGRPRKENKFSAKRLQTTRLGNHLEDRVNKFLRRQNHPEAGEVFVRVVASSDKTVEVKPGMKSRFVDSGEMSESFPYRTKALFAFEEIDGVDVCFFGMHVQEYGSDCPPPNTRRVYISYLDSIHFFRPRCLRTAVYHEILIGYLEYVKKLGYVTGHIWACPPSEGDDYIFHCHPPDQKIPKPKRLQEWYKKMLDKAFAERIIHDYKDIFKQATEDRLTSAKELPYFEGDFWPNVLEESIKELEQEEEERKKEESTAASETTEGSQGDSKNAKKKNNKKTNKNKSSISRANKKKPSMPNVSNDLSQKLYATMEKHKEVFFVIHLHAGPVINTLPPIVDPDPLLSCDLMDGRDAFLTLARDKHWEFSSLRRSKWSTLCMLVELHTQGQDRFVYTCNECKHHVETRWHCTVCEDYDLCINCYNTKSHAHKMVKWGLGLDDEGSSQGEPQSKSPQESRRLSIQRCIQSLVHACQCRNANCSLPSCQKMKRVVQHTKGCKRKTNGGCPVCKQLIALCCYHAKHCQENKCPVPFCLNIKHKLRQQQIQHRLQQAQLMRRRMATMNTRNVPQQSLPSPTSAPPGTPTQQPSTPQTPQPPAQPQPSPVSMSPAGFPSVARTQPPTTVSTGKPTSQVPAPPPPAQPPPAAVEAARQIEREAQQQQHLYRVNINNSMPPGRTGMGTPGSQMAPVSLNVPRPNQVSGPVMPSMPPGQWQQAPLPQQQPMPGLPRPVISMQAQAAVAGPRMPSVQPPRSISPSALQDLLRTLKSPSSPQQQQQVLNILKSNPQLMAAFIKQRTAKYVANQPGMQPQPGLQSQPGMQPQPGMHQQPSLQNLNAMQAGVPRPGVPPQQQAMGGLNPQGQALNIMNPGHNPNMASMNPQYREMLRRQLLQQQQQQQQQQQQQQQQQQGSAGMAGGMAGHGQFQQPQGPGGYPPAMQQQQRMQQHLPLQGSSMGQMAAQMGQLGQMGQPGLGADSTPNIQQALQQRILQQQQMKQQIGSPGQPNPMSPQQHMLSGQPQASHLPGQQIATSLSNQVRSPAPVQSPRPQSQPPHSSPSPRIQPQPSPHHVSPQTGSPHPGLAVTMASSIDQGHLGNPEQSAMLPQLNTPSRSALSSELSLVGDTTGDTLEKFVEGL

Turning to `C[C@@H]1CC(=O)Nc2cc(C3CCN(CC4CCN(c5ccc(C(=O)N[C@H]6CC[C@H](Oc7ccc(C#N)c(Cl)c7)CC6)nn5)CC4)CC3)cc(-c3ccc4c(c3)c(-c3cnn(C)c3)nn4C)c2N1` [Compound 87, N-[4-(3-chloro-4-cyano-phenoxy)cyclohexyl]-6-[4-[[4-[(4R)-4-methyl-6-[1-methyl-3-(1-methylpyrazol-4-yl)indazol-5-yl]-2-oxo-1,3,4,5-tetrahydro-1,5-benzodiazepin-8-yl]-1-piperidyl]methyl]-1-piperidyl]pyridazine-3-carboxamide], the EC50 on AR / CBP ternary complex (setting [1]) was < 1 nM. The 50% inhibitory concentration (IC50) in the experiment with VCaP cells was ≤ 0.1 nM.
In the same order, the values of `CC(=O)N1CCc2c(c(N3CCCc4cc(C#N)ncc43)nn2C2CCN(CC3CCN(c4ccc(C(=O)N[C@H]5CC[C@H](Oc6ccc(C#N)c(Cl)c6)CC5)nn4)CC3)CC2)C1` [Compound 68, 6-[4-[[4-[5-acetyl-3-(6-cyano-3,4-dihydro-2H-1,7-naphthyridin-1-yl)-6,7-dihydro-4H-pyrazolo[4,3-c]pyridin-1-yl]-1-piperidyl]methyl]-1-piperidyl]-N-[4-(3-chloro-4-cyano-phenoxy)cyclohexyl]pyridazine-3-carboxamide] are < 1 nM and ≤ 0.1 nM.
For the molecule `CC(=O)N1CCc2c(c(N3CCCc4cc(-c5ccc(CCN6CCN(c7ccc(C(=O)N[C@H]8CC[C@H](Oc9ccc(C#N)c(Cl)c9)CC8)nn7)CC6)cc5)ncc43)nn2C2CCOCC2)C1` [Compound 157, 6-[4-[2-[4-[1-(5-acetyl-1-tetrahydropyran-4-yl-6,7-dihydro-4H-pyrazolo[4,3-c]pyridin-3-yl)-3,4-dihydro-2H-1,7-naphthyridin-6-yl]phenyl]ethyl]piperazin-1-yl]-N-[4-(3-chloro-4-cyano-phenoxy)cyclohexyl]pyridazine-3-carboxamide], the EC50 on AR / CBP ternary complex (setting [1]) was < 1 nM. The IC50 in the experiment on VCaP cells fell in the range of 0.1 to 1 nM.
As for `CC(=O)N1CCc2c(c(N3CCCc4cc(C#N)ccc43)nn2C2CC3(C2)CN(CC2CC4(C2)CN(c2ccc(C(=O)N[C@H]5CC[C@H](Oc6ccc(C#N)c(Cl)c6)CC5)nn2)C4)C3)C1` (stereo partly drawn) [Compound 45, 6-[6-[[6-[5-acetyl-3-(6-cyano-3,4-dihydro-2H-quinolin-1-yl)-6,7-dihydro-4H-pyrazolo[4,3-c]pyridin-1-yl]-2-azaspiro [3.3]heptan-2-yl]methyl]-2-azaspiro[3.3]heptan-2-yl]-N-[4-(3-chloro-4-cyano-phenoxy)cyclohexyl] pyridazine-3-carboxamide], at AR / CBP ternary complex (setting [1]), the EC50 is < 1 nM. The IC50 in the experiment on VCaP cells was in the range of 0.1 to 1 nM.
For `CC(=O)N1CCc2c(c(N3CCCc4cc(-c5cnn(C)c5)c(C(F)F)cc43)nn2C2CCN(CC3C4CC3CN(c3ccc(C(=O)N[C@H]5CC[C@H](Oc6ccc(C#N)c(Cl)c6)CC5)nn3)C4)CC2)C1` (stereo partly drawn) [Compound 118, 6-[6-[[4-[5-acetyl-3-[7-(difluoromethyl)-6-(1-methylpyrazol-4-yl)-3,4-dihydro-2H-quinolin-1-yl]-6,7-dihydro-4H-pyrazolo[4,3-c]pyridin-1-yl]-1-piperidyl]methyl]-3-azabicyclo [3.1.1]heptan-3-yl]-N-[4-(3-chloro-4-cyano-phenoxy)cyclohexyl] pyridazine-3-carboxamide], the EC50 at AR / CBP ternary complex (setting [2]) is < 1 nM. Besides, the IC50 in the experiment with VCaP cells was 0.1 to 1 nM.
Consider `CC(=O)N1CCc2c(c(-c3cccc4cc(-c5cnn(C)c5)ncc34)nn2C2CCN(CC3CCN(c4ccc(C(=O)N[C@H]5CC[C@H](Oc6ccc(C#N)c(Cl)c6)CC5)nn4)CC3(C)C)CC2)C1` (stereo partly drawn) [Compound 280], for which, at AR / CBP ternary complex (setting [1]), the EC50 was < 1 nM. Besides, the IC50 in the experiment on VCaP cells is ≤ 0.1 nM.
In the same order, the values of `CC(=O)N1CCc2c(c(N3CCCc4cc(-c5cnn(C)c5)c(C)cc43)nn2C2CCN(CC3CCN(c4ccc(C(=O)N[C@H]5CC[C@H](Oc6ccc(C#N)c(Cl)c6)CC5)nn4)CC3(C)C)CC2)C1` (stereo partly drawn) [Compound 282, 6-[4-[[4-[5-acetyl-3-[7-methyl-6-(1-methylpyrazol-4-yl)-3,4-dihydro-2H-quinolin-1-yl]-6,7-dihydro-4H-pyrazolo[4,3-c]pyridin-1-yl]-1-piperidyl]methyl]-3,3-dimethyl-1-piperidyl]-N-[4-(3-chloro-4-cyano-phenoxy)cyclohexyl]pyridazine-3-carboxamide] are < 1 nM and 0.1 to 1 nM.
Take `CC(=O)N1CCc2c(c(N3CCCc4cc(-c5cnn(C)c5)c(C)cc43)nn2C2CCN(C3CCC4(CC3)CN(c3ccc(C(=O)N[C@H]5CC[C@H](Oc6ccc(C#N)c(Cl)c6C)CC5)nn3)C4)CC2)C1` [Compound 300, 6-[7-[4-[5-acetyl-3-[7-methyl-6-(1-methylpyrazol-4-yl)-3,4-dihydro-2H-quinolin-1-yl]-6,7-dihydro-4H-pyrazolo[4,3-c]pyridin-1-yl]-1-piperidyl]-2-azaspiro[3.5]nonan-2-yl]-N-[4-(3-chloro-4-cyano-2-methyl-phenoxy)cyclohexyl]pyridazine-3-carboxamide]: on AR / CBP ternary complex (setting [1]), the EC50 is < 1 nM. In addition, in the experiment with VCaP cells, the IC50 was ≤ 0.1 nM.
`CC(=O)N1CCc2c(c(N3CCCc4cc(C#N)ccc43)nn2C2CCN(C(=O)C3CCN(c4ccc(C(=O)N[C@H]5CC[C@H](Oc6ccc(C#N)c(Cl)c6)CC5)nn4)CC3)CC2)C1` [Compound 61, 6-[4-[4-[5-acetyl-3-(6-cyano-3,4-dihydro-2H-quinolin-1-yl)-6,7-dihydro-4H-pyrazolo[4,3-c]pyridin-1-yl]piperidine-1-carbonyl]-1-piperidyl]-N-[4-(3-chloro-4-cyano-phenoxy)cyclohexyl]pyridazine-3-carboxamide]: at AR / CBP ternary complex (setting [1]), the EC50 was < 1 nM. Also, the IC50 in the experiment with VCaP cells is ≤ 0.1 nM.
Turning to `Cc1cc2c(N3CCN(C)c4cc(-c5cnn(C)c5)c(C#N)cc43)cc(OCCOC3CCN(c4ccc(C(=O)N[C@H]5CC[C@H](Oc6ccc(C#N)c(Cl)c6)CC5)nn4)CC3)cc2n(C)c1=O` [Compound 39, N-[4-(3-chloro-4-cyano-phenoxy)cyclohexyl]-6-[4-[2-[[5-[7-cyano-4-methyl-6-(1-methylpyrazol-4-yl)-2,3-dihydroquinoxalin-1-yl]-1,3-dimethyl-2-oxo-7-quinolyl]oxy]ethoxy]-1-piperidyl]pyridazine-3-carboxamide], the EC50 at AR / CBP ternary complex (setting [1]) is < 1 nM. The IC50 in the experiment with VCaP cells is ≤ 0.1 nM.
Turning to `CC(=O)N1CCc2c(c(N3CCCc4cc(C#N)ccc43)nn2C2CCC3(CC2)CCN(c2ccc(C(=O)N[C@H]4CC[C@H](Oc5ccc(C#N)c(Cl)c5)CC4)nn2)CC3)C1` [Compound 113, 6-[9-[5-acetyl-3-(6-cyano-3,4-dihydro-2H-quinolin-1-yl)-6,7-dihydro-4H-pyrazolo[4,3-c]pyridin-1-yl]-3-azaspiro[5.5]undecan-3-yl]-N-[4-(3-chloro-4-cyano-phenoxy)cyclohexyl]pyridazine-3-carboxamide], the EC50 on AR / CBP ternary complex (setting [1]) is < 1 nM. Besides, the IC50 with VCaP cells fell in the range of 0.1 to 1 nM.
Regarding `CC(=O)N1CCc2c(c(N3CCCc4cc(-c5cnn(C)c5)c(C(F)F)cc43)nn2C2CCN([C@H]3C[C@H](Oc4ccc(C(=O)N[C@H]5CC[C@H](Oc6ccc(C#N)c(Cl)c6)CC5)nn4)C3)CC2)C1` [Compound 240, 6-[3-[4-[5-acetyl-3-[7-(difluoromethyl)-6-(1-methylpyrazol-4-yl)-3,4-dihydro-2H-quinolin-1-yl]-6,7-dihydro-4H-pyrazolo[4,3-c]pyridin-1-yl]-1-piperidyl]cyclobutoxy]-N-[4-(3-chloro-4-cyano-phenoxy)cyclohexyl]pyridazine-3-carboxamide], on AR / CBP ternary complex (setting [1]), the EC50 is < 1 nM. In the experiment with VCaP cells, this molecule returned an IC50 of 0.1 to 1 nM.
In the same order, the values of `C[C@@H]1CC(=O)Nc2cc(C3CCN(CC4CCN(c5ccc(C(=O)N[C@H]6CC[C@H](Oc7ccc(C#N)c(Cl)c7)CC6)nn5)CC4)CC3)cc(-c3ccc4c(cnn4C)c3)c2N1` [Compound 89] are < 1 nM and ≤ 0.1 nM.
On to `CC(=O)N1CCc2c(c(N3CCCc4cc(-c5cnn(C)c5)c(C(F)F)cc43)nn2C2CCN(CCC#Cc3ccc(C(=O)N[C@H]4CC[C@H](Oc5ccc(C#N)c(Cl)c5)CC4)nn3)CC2)C1` [Compound 94, 6-[4-[4-[5-acetyl-3-[7-(difluoromethyl)-6-(1-methylpyrazol-4-yl)-3,4-dihydro-2H-quinolin-1-yl]-6,7-dihydro-4H-pyrazolo[4,3-c]pyridin-1-yl]-1-piperidyl]but-1-ynyl]-N-[4-(3-chloro-4-cyano-phenoxy)cyclohexyl]pyridazine-3-carboxamide], for which the EC50 on AR / CBP ternary complex (setting [1]) is 1 to 10 nM. The same molecule returned an IC50 in the experiment on VCaP cells of 0.1 to 1 nM.
Take `CC(=O)N1CCc2c(c(N3CCCc4cc(-c5cnn(C)c5)c(C(F)F)cc43)nn2[C@H]2[C@@H]3C[C@H]2CN(CC2CCN(c4ccc(C(=O)N[C@H]5CC[C@H](Oc6ccc(C#N)c(Cl)c6)CC5)nn4)CC2)C3)C1` [Compound 150, N-[4-(3-chloro-4-cyano-phenoxy)cyclohexyl]-6-[4-[[rac-(1R,5S)-6-[5-acetyl-3-[7-(difluoromethyl)-6-(1-methylpyrazol-4-yl)-3,4-dihydro-2H-quinolin-1-yl]-6,7-dihydro-4H-pyrazolo[4,3-c]pyridin-1-yl]-3-azabicyclo[3.1.1]heptan-3-yl]methyl]-1-piperidyl]pyridazine-3-carboxamide]: on AR / CBP ternary complex (setting [2]), the EC50 was 1 to 10 nM. Also, in the experiment on VCaP cells, the IC50 is 0.1 to 1 nM.
